Measured values: publication PMC11012124, “Synthesis of Novel Triazine-Based Chalcones and 8,9-dihydro-7H-pyrimido[4,5-b][1,4]diazepines as Potential Leads in the Search of Anticancer, Antibacterial and Antifungal Agents” (International Journal of Molecular Sciences, 2024)
Converted amounts (≈) assume the structure as drawn.

What was measured:
60 cancer cell lines = assay: NCI-60 one-dose screen (10 μM); format: cell-based; conditions: Homo sapiens; one dose of 10 μM, mean over 60 cancer cell lines; read-out: Mean Growth Percent (MGP)
From the text: Additionally, the mean of the growth percentages (MGP) of each compound against all the 60 cancer cell lines is also reported, which is used as one of the selection criteria to continue with tests at five concentration doses.

[1] = Hemolytic activity, spectrophotometric; format: cell-based, human; conditions: human, human red blood cells (huRBC), 5% hematocrit, 200 μg/mL, 37 °C
RPMI-8226 = assay: cells; conditions: Homo sapiens, RPMI-8226, 48 h; for CC50: read-out: LC50
SR = assay: cells; conditions: Homo sapiens, 48 h; for CC50: read-out: LC50
HOP-62 = assay: cells; conditions: Homo sapiens, HOP-62, 48 h; for CC50: read-out: LC50
NCI-H226 = assay: cells; conditions: Homo sapiens, NCI-H226, 48 h; for CC50: read-out: LC50
NCI-H23 = assay: cells; conditions: Homo sapiens, NCI-H23, 48 h; for CC50: read-out: LC50
NCI-H322M = assay: cells; conditions: Homo sapiens, 48 h; for CC50: read-out: LC50
HCT-15 = assay: cells; conditions: Homo sapiens, HCT-15, 48 h; for CC50: read-out: LC50
SW-620 = assay: cells; conditions: Homo sapiens, SW-620, 48 h; for CC50: read-out: LC50
SF-295 = assay: cells; conditions: Homo sapiens, SF-295, 48 h; for CC50: read-out: LC50
MALME-3M = assay: cells; conditions: Homo sapiens, 48 h; for CC50: read-out: LC50
MDA-MB-435 = assay: cells; conditions: Homo sapiens, MDA-MB-435, 48 h; for CC50: read-out: LC50
IGROV1 = assay: cells; conditions: Homo sapiens, IGROV-1, 48 h; for CC50: read-out: LC50
OVCAR-4 = assay: cells; conditions: Homo sapiens, OVCAR-4, 48 h; for CC50: read-out: LC50
OVCAR-5 = assay: cells; conditions: Homo sapiens, OVCAR-5, 48 h; for CC50: read-out: LC50
OVCAR-8 = assay: cells; conditions: Homo sapiens, OVCAR-8, 48 h; for CC50: read-out: LC50
NCI/ADR-RES = assay: cells; conditions: Homo sapiens, 48 h; for CC50: read-out: LC50
SK-OV-3 = assay: cells; conditions: Homo sapiens, SK-OV-3, 48 h; for CC50: read-out: LC50
ACHN = assay: cells; conditions: Homo sapiens, 48 h; for CC50: read-out: LC50
TK-10 = assay: cells; conditions: Homo sapiens, TK-10, 48 h; for CC50: read-out: LC50
DU-145 = assay: cells; conditions: Homo sapiens, DU-145, 48 h; for CC50: read-out: LC50
MCF7 = assay: cells; conditions: Homo sapiens, MCF7, 48 h; for CC50: read-out: LC50
BT-549 = assay: cells; conditions: Homo sapiens, BT-549, 48 h; for CC50: read-out: LC50
[2] = tested on: N. gonorrhoeae ATCC 49226; assay: MIC on GC agar plates; format: cell-based, Neisseria gonorrhoeae; conditions: Neisseria gonorrhoeae, ATCC49226, read-out: MIC
Method: An initial screening for bacterial inhibition was performed by the agar diffusion method. […] DMSO and TSB were included as negative controls. Gentamicin and trimethoprim sulfamethoxazole were included as a positive control for growth inhibition. Derivatives showing growth inhibition were tested at least twice before being selected for the microdilution test. For N. gonorrhoeae, the agar diffusion method was also used for screening with some modifications. […] Penicillin and tetracycline were used as controls. […] Briefly, GC agar supplemented with 1% isovitalex was prepared with increasing concentrations of the new compounds and inoculated with 10 µL of a bacterial suspension (1 × 10^4 CFU). The lowest concentration of the compound that inhibited bacterial growth was determined as the MIC. Bacterial growth was examined and verified using the oxidase test. The experiments were performed in duplicate in at least two independent assays.

RXF 393 = assay: cells; conditions: Homo sapiens, RXF 393, 48 h

COc1cc(/C=C/C(=O)c2ccccc2)ccc1Oc1nc(Nc2ccc(F)cc2)nc(N(C)C)n1 [21a]
activity at 10 µM (60 cancer cell lines): 24.6%
hemolysis at 24 h, 200 µg/mL [1]: 2%
GI50 (RPMI-8226): 2830 nM
CC50 (RPMI-8226): > 100 µM
GI50 (SR): 2900 nM
CC50 (SR): > 100 µM
GI50 (HOP-62): 26600 nM
CC50 (HOP-62): > 100 µM
GI50 (NCI-H226): 4.94 µM
CC50 (NCI-H226): 64.9 µM
GI50 (NCI-H23): 12.6 µM
CC50 (NCI-H23): > 100 µM
GI50 (NCI-H322M): 28.7 µM
CC50 (NCI-H322M): > 100 µM
GI50 (HCT-15): 3310 nM
CC50 (HCT-15): 36.2 µM
GI50 (SW-620): 1810 nM
CC50 (SW-620): 8.7 µM
GI50 (SF-295): 6.89 µM
CC50 (SF-295): > 100 µM
GI50 (MALME-3M): 15900 nM
CC50 (MALME-3M): 98.8 µM
GI50 (MDA-MB-435): 7390 nM
CC50 (MDA-MB-435): 94.3 µM
GI50 (IGROV1): 18700 nM
CC50 (IGROV1): > 100 µM
GI50 (OVCAR-4): 5850 nM
CC50 (OVCAR-4): > 100 µM
GI50 (OVCAR-5): 13900 nM
CC50 (OVCAR-5): > 100 µM
GI50 (OVCAR-8): 5900 nM
CC50 (OVCAR-8): 97.6 µM
GI50 (NCI/ADR-RES): 7.04 µM
CC50 (NCI/ADR-RES): 58.5 µM
GI50 (SK-OV-3): 48.6 µM
CC50 (SK-OV-3): > 100 µM
GI50 (ACHN): 8290 nM
CC50 (ACHN): > 100 µM
GI50 (TK-10): 18 µM
CC50 (TK-10): > 100 µM
GI50 (DU-145): 27.3 µM
CC50 (DU-145): > 100 µM
GI50 (MCF7): 3080 nM
CC50 (MCF7): 78.2 µM
GI50 (BT-549): 12000 nM
CC50 (BT-549): 68.1 µM

COc1cc(/C=C/C(=O)c2ccc(S(=O)(=O)NCCNc3nc(N(C)C)nc(N4CCOCC4)n3)cc2)cc(OC)c1OC [23d]
activity at 10 µM (60 cancer cell lines): -32.7%
MIC [2]: > 500 µg/mL
hemolysis at 24 h, 200 µg/mL [1]: 0.2%
GI50 (RPMI-8226): 1390 nM
CC50 (RPMI-8226): > 100 µM
GI50 (SR): 1880 nM
CC50 (SR): > 100 µM
GI50 (HOP-62): 2660 nM
CC50 (HOP-62): 32.1 µM
GI50 (NCI-H226): 11.4 µM
CC50 (NCI-H226): 72.4 µM
GI50 (NCI-H23): 3.09 µM
CC50 (NCI-H23): 40.3 µM
GI50 (NCI-H322M): 7.82 µM
CC50 (NCI-H322M): 48.5 µM
GI50 (HCT-15): 1820 nM
CC50 (HCT-15): 8.38 µM
GI50 (SW-620): 1900 nM
CC50 (SW-620): 7.42 µM
GI50 (SF-295): 3.04 µM
CC50 (SF-295): 57.8 µM
GI50 (MALME-3M): 1970 nM
CC50 (MALME-3M): 9.42 µM
GI50 (MDA-MB-435): 1900 nM
CC50 (MDA-MB-435): 8.46 µM
GI50 (IGROV1): 2600 nM
CC50 (IGROV1): 50.1 µM
GI50 (OVCAR-4): 2210 nM
CC50 (OVCAR-4): 24.8 µM
GI50 (OVCAR-5): 2830 nM
CC50 (OVCAR-5): 33.7 µM
GI50 (OVCAR-8): 2300 nM
CC50 (OVCAR-8): 36.5 µM
GI50 (SK-OV-3): 14.3 µM
CC50 (SK-OV-3): 52.7 µM
GI50 (ACHN): 1780 nM
CC50 (ACHN): 6.75 µM
GI50 (RXF 393): 1220 nM
CC50 (RXF 393; read-out: LC50): 8.63 µM
GI50 (TK-10): 13.1 µM
CC50 (TK-10): 50.8 µM
GI50 (DU-145): 3.31 µM
CC50 (DU-145): 34.1 µM
GI50 (MCF7): 1640 nM
CC50 (MCF7): 9.66 µM
GI50 (BT-549): 2010 nM
CC50 (BT-549): 6.91 µM

Cc1ccc(C2CC(c3ccc(Nc4nc(NCCO)nc(Nc5ccc(Cl)cc5)n4)cc3)=Nc3c(N)nc(N)nc3N2)cc1 (stereo not drawn) [33b]
activity at 10 µM (60 cancer cell lines): -21.8%
MIC [2]: 0.5 µg/mL (≈ 0.802 µM)
GI50 (RPMI-8226): 1830 nM
CC50 (RPMI-8226): > 100 µM
GI50 (SR): 1680 nM
CC50 (SR): > 100 µM
GI50 (HOP-62): 1680 nM
CC50 (HOP-62): 6.08 µM
GI50 (NCI-H226): 16.7 µM
CC50 (NCI-H226): 88.2 µM
GI50 (NCI-H322M): 1.59 µM
CC50 (NCI-H322M): 5.42 µM
GI50 (HCT-15): 1480 nM
CC50 (HCT-15): 5.87 µM
GI50 (SW-620): 1790 nM
CC50 (SW-620): 6.12 µM
GI50 (SF-295): 1.63 µM
CC50 (SF-295): 5.63 µM
GI50 (MALME-3M): 1700 nM
CC50 (MALME-3M): 6.69 µM
GI50 (MDA-MB-435): 1730 nM
CC50 (MDA-MB-435): 5.68 µM
GI50 (IGROV1): 1650 nM
CC50 (IGROV1): 5.98 µM
GI50 (OVCAR-4): 1850 nM
CC50 (OVCAR-4): 7.14 µM
GI50 (OVCAR-5): 1620 nM
CC50 (OVCAR-5): 5.59 µM
GI50 (OVCAR-8): 1800 nM
CC50 (OVCAR-8): 7.55 µM
GI50 (NCI/ADR-RES): 1.73 µM
CC50 (NCI/ADR-RES): 6.97 µM
GI50 (SK-OV-3): 2.69 µM
CC50 (SK-OV-3): 25.6 µM
GI50 (ACHN): 1720 nM
CC50 (ACHN): 5.56 µM
GI50 (RXF 393): 1450 nM
GI50 (TK-10): 1.9 µM
CC50 (TK-10): 6.02 µM
GI50 (DU-145): 1.76 µM
CC50 (DU-145): 5.77 µM
GI50 (MCF7): 1460 nM
CC50 (MCF7): 6.22 µM
GI50 (BT-549): 1730 nM
CC50 (BT-549): 5.69 µM
